We go through two molecules from BindingDB's records for doi:10.1016/j.bmc.2012.03.044 (University of Mansoura, 2012).

The assay has as its target T1, Prostaglandin G/H synthase 1 (Ovis aries, UniProt P05979).
T1 sequence (P05979 whole entry): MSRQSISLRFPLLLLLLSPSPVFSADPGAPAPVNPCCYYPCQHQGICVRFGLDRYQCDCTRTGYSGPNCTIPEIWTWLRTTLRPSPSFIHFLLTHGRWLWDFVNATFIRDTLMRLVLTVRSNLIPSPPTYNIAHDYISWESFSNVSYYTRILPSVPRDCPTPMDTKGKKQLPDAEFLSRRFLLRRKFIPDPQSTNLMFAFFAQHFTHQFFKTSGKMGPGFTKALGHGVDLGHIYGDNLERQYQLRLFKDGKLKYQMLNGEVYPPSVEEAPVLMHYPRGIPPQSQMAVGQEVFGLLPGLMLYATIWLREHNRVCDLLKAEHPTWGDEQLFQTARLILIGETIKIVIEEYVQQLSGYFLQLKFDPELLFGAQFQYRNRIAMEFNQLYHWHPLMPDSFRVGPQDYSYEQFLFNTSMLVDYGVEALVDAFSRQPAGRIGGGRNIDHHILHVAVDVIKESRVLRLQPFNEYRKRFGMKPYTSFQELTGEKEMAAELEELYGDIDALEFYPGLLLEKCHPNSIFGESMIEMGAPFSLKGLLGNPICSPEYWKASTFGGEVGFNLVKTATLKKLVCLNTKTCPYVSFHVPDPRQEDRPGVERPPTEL
Put plainly: Inhibition of ovine COX1 by enzyme immuno assay.

The term IC50 denotes the concentration that inhibits the measured activity by half. High values mean a need for much substance, low ones inhibition by little substance. The molecule `Cc1ccc(C2CC3(N=N2)C(=O)Nc2ccc(F)cc23)cc1` (configuration not stated) displayed an IC50 of over 50 µM. The value for `O=C1Nc2ccc(F)cc2C12CC(c1ccc(Br)cc1)N=N2` (configuration not stated) was over 50 µM.
